Assay results reported in patent publication US20260062422A1 (Halda Therapeutics OpCo, Inc., priority 2022, published 2026).

Legend:
[1] = tested on: T-Rex 293 cell line SC3 cells having increased expression of androgen receptor protein due to exposure to doxycycline; experiment: Cellular growth inhibition, T-Rex 293 SC3 cells with doxycycline (androgen receptor induced), CellTiter-Glo; type: cell-based; details: T-Rex 293 SC3 cells with 10 ng/mL doxycycline (increased androgen receptor expression)
Outline: (§1)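 With DMSO (0.5%) vehicle as negative control, compounds treated SC3 cells for 72 h in medium containing charcoal-dextran FBS ± doxycycline. This T-Rex 293 clone expresses transfected wild-type AR on induction. Readout: CellTiter-Glo 2.0; GI50 by nonlinear regression.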

[2] = tested on: T-Rex 293 cell line SC3 cells lacking increased expression of androgen receptor protein; experiment: Cellular growth inhibition, T-Rex 293 SC3 cells without doxycycline, CellTiter-Glo; type: cell-based; details: T-Rex 293 SC3 cells not exposed to doxycycline, CellTiter-Glo 2.0
Outline: as §1

VCaP cells = experiment: Cellular growth inhibition assay for VCaP cells, CellTiter-Glo; type: cell-based, human; details: 72 hours treatment, CellTiter-Glo 2.0
Outline: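 GI50 values come from four-parameter curve fits of luminescence data normalized to a zero baseline. Compound, in medium with 0.5% DMSO, was added one day after plating and left for 72 h before CellTiter-Glo 2.0 addition.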

T47D cells = experiment: Cellular growth inhibition assay for T47D cells, CellTiter-Glo; type: cell-based, human; details: 72 hours treatment, CellTiter-Glo 2.0 cell viability
Outline: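 Growth inhibition as GI50, fitted with four parameters to CellTiter-Glo luminescence after 72 h of compound exposure (0.5% DMSO). Cells were T47D, grown in insulin-supplemented (0.2 units/mL) DMEM with 10% FBS and treated one day post-seeding.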

Row | Structure (SMILES) | GI50 ([1]; 72 h) | GI50 ([2]; 72 h) | GI50 (VCaP cells; Homo sapiens, VCaP, 72 h) | GI50 (T47D cells; Homo sapiens, T47D, 72 h) | GI50 ([1]; 72 hours) | GI50 ([2]; 72 hours) | GI50 (VCaP cells) | GI50 (T47D cells)
1 | Cc1sc2c(c1C)C(c1ccc(N3CCCC4(CCN(c5ncc(C(=O)N[C@H]6C(C)(C)[C@H](Oc7ccc(C#N)c(Cl)c7)C6(C)C)cn5)CC4)C3)cc1)=NC(Cc1ncco1)c1nnc(C)n1-2 (some centres unmarked) [Compound I-637] | < 500 nM | > 3000 nM | < 500 nM | < 500 nM |  |  |  | 
2 | Cc1sc2c(c1C)C(c1ccc(C#CCC3CCN(c4ncc(C(=O)N[C@H]5C(C)(C)[C@H](Oc6ccc(C#N)c(Cl)c6)C5(C)C)cn4)CC3)cc1)=N[C@@H](Cc1ncco1)c1nnc(C)n1-2 [Compound I-57] | < 500 nM | < 500 nM | < 500 nM | < 500 nM |  |  |  | 
3 | Cc1sc2c(c1C)C(c1ccc(NCC3CCCCN3c3ncc(C(=O)N[C@H]4C(C)(C)[C@H](Oc5ccc(C#N)c(Cl)c5)C4(C)C)cn3)cc1)=NC(Cc1ncco1)c1nnc(C)n1-2 (some centres unmarked) [Compound I-638] | < 500 nM | < 500 nM | < 500 nM | < 500 nM |  |  |  | 
4 | Cc1sc2c(c1C)C(c1ccc(N3CC(C4CCN(c5ncc(C(=O)N[C@H]6C(C)(C)[C@H](Oc7ccc(C#N)c(Cl)c7)C6(C)C)cn5)C4)C3)cc1)=NC1(CC1)c1nnc(C)n1-2 (some centres unmarked) [Compound I-604] | < 500 nM | < 500 nM | < 500 nM | 500 to 1500 nM |  |  |  | 
5 | Cc1sc2c(c1C)C(c1ccc([C@H]3C[C@H]([C@H]4CCN(c5ncc(C(=O)N[C@H]6C(C)(C)[C@H](Oc7ccc(C#N)c(Cl)c7)C6(C)C)cn5)C4)C3)cc1)=N[C@@H](Cc1ncco1)c1nnc(C)n1-2 [Compound I-416] | < 500 nM | > 3000 nM | < 500 nM | < 500 nM |  |  |  | 
6 | Cc1sc2c(c1C)C(c1ccc(NC3CCCN(c4ncc(C(=O)N[C@H]5C(C)(C)[C@H](Oc6ccc(C#N)c(Cl)c6)C5(C)C)cn4)CC3)cc1)=NC(Cc1ncco1)c1nnc(C)n1-2 (some centres unmarked) [Compound I-640] | < 500 nM | 500 to 1500 nM | < 500 nM | < 500 nM |  |  |  | 
7 | Cc1sc2c(c1C)C(c1ccc(N3CC(OC4CCN(c5ncc(C(=O)N[C@H]6C(C)(C)[C@H](Oc7ccc(C#N)c(Cl)c7)C6(C)C)cn5)CC4)C3)cc1)=N[C@@H](Cc1ncco1)c1nnc(C)n1-2 [Compound I-206, N-[3-(3-chloro-4-cyano-phenoxy)-2,2,4,4-tetramethyl-cyclobutyl]-2-[4-[1-[4-[(9S)-4,5,13-trimethyl-9-(oxazol-2-ylmethyl)-3-thia-1,8,11,12-tetrazatricyclo[8.3.0.02,6]trideca-2(6),4,7,10,12-pentaen-7-yl]phenyl]azetidin-3-yl]oxy-1-piperidyl]pyrimidine-5-carboxamide] | < 500 nM | < 500 nM | < 500 nM | < 500 nM |  |  |  | 
8 | Cc1sc2c(c1C)C(c1ccc(CCC(=O)N3CCN(c4ncc(C(=O)N[C@H]5C(C)(C)[C@H](Oc6ccc(C#N)c(Cl)c6)C5(C)C)cn4)CC3)cc1)=N[C@@H](Cc1ncco1)c1nnc(C)n1-2 [Compound I-287] | < 500 nM | < 500 nM | < 500 nM | < 500 nM |  |  |  | 
9 | Cc1sc2c(c1C)C(c1ccc(N3C4CCC3CN(c3ncc(C(=O)N[C@H]5C(C)(C)[C@H](Oc6ccc(C#N)c(Cl)c6)C5(C)C)cn3)C4)cc1)=N[C@@H](Cc1ncco1)c1nnc(C)n1-2 [Compound I-635] |  |  | < 500 nM | < 500 nM | < 500 nM | < 500 nM |  | 
10 | Cc1sc2c(c1C)C(c1ccc(C3CC(C4CCN(c5ncc(C(=O)N[C@H]6C(C)(C)[C@H](Oc7ccc(C#N)c(Cl)c7)C6(C)C)cn5)CC4)C3)cc1)=NC(C)c1nnc(C)n1-2 (some centres unmarked) [Compound I-468] |  |  |  |  | < 500 nM | > 3000 nM | < 500 nM | < 500 nM
11 | Cc1sc2c(c1C)C(c1ccc(N3CC(C4CCCN(c5ncc(C(=O)N[C@H]6C(C)(C)[C@H](Oc7ccc(C#N)c(Cl)c7)C6(C)C)cn5)C4)C3)cc1)=N[C@@H](C)c1nnc(C)n1-2 (some centres unmarked) [Compound I-474] |  |  |  |  | < 500 nM | 500 to 1500 nM | > 3000 nM | < 500 nM
12 | Cc1sc2c(c1C)C(c1ccc(O[C@H]3CCC4(C3)CN(c3ncc(C(=O)N[C@H]5C(C)(C)[C@H](Oc6ccc(C#N)c(Cl)c6)C5(C)C)cn3)C4)cc1)=N[C@@H](Cc1ncco1)c1nnc(C)n1-2 [Compound I-180] | < 500 nM | < 500 nM | < 500 nM | < 500 nM |  |  |  | 
13 | Cc1sc2c(c1C)C(c1ccc(CN3CCC4(CCCN(c5ncc(C(=O)N[C@H]6C(C)(C)[C@H](Oc7ccc(C#N)c(Cl)c7)C6(C)C)cn5)C4)C3)cc1)=N[C@H](Cc1ncco1)c1nnc(C)n1-2 (some centres unmarked) [Compound I-146] | < 500 nM | 500 to 1500 nM | < 500 nM | < 500 nM |  |  |  | 
14 | Cc1sc2c(c1C)C(c1ccc(-c3ncc(C4CCN(c5ncc(C(=O)N[C@H]6C(C)(C)[C@H](Oc7ccc(C#N)c(Cl)c7)C6(C)C)cn5)CC4)s3)cc1)=N[C@@H](Cc1ncco1)c1nnc(C)n1-2 [Compound I-452] | < 500 nM | < 500 nM | < 500 nM | < 500 nM |  |  |  | 
15 | Cc1sc2c(c1C)C(c1ccc(O[C@H]3CC[C@]4(CCN(c5ncc(C(=O)N[C@H]6C(C)(C)[C@H](Oc7ccc(C#N)c(Cl)c7)C6(C)C)cn5)C4)C3)cc1)=N[C@@H](Cc1ncco1)c1nnc(C)n1-2 [Compound I-175] | < 500 nM | < 500 nM | < 500 nM | 500 to 1500 nM |  |  |  | 
16 | CCNC(=O)C[C@@H]1N=C(c2ccc(N3CCC(CN4CCN(c5ncc(C(=O)N[C@H]6C(C)(C)[C@H](Oc7ccc(C#N)c(Cl)c7)C6(C)C)cn5)CC4)CC3)cc2)c2c(sc(C)c2C)-n2c(C)nnc21 [Compound I-109] | < 500 nM | 500 to 1500 nM | < 500 nM | < 500 nM |  |  |  | 
17 | Cc1sc2c(c1C)C(c1ccc(OC3CN(CC4CCN(c5ncc(C(=O)N[C@H]6C(C)(C)[C@H](Oc7ccc(C#N)c(Cl)c7)C6(C)C)cn5)CC4)C3)cc1)=N[C@@H](Cc1ncco1)c1nnc(C)n1-2 [Compound I-168] | < 500 nM | > 3000 nM | > 3000 nM | 500 to 1500 nM |  |  |  | 
18 | Cc1sc2c(c1C)C(c1ccc(C(=O)N3CCN(CCc4ncc(C(=O)N[C@H]5C(C)(C)[C@H](Oc6ccc(C#N)c(Cl)c6)C5(C)C)cn4)CC3)cc1)=N[C@@H](Cc1ncco1)c1nnc(C)n1-2 [Compound I-333] | > 3000 nM | > 3000 nM | > 3000 nM | > 3000 nM |  |  |  | 
19 | CC[C@@H]1N=C(c2ccc(N3CC(CC4CCN(c5ncc(C(=O)N[C@H]6C(C)(C)[C@H](Oc7ccc(C#N)c(Cl)c7)C6(C)C)cn5)CC4)C3)cc2)c2c(sc(C)c2C)-n2c(C)nnc21 [Compound I-593] | < 500 nM | > 3000 nM | < 500 nM | < 500 nM |  |  |  | 
20 | Cc1sc2c(c1C)C(c1ccc(NCC3CCN(c4ncc(C(=O)N[C@H]5C(C)(C)[C@H](Oc6ccc(C#N)c(Cl)c6)C5(C)C)cn4)C3)cc1)=NC(Cc1ncco1)c1nnc(C)n1-2 (some centres unmarked) [Compound I-639] | < 500 nM | < 500 nM | < 500 nM | < 500 nM |  |  |  | 
21 | Cc1sc2c(c1C)C(c1ccc(O[C@@H]3COC4(C3)CN(c3ncc(C(=O)N[C@H]5C(C)(C)[C@H](Oc6ccc(C#N)c(Cl)c6)C5(C)C)cn3)C4)cc1)=N[C@@H](Cc1ncco1)c1nnc(C)n1-2 [Compound I-182] | < 500 nM | < 500 nM | < 500 nM | < 500 nM |  |  |  | 
22 | Cc1sc2c(c1C)C(c1ccc(C[C@H]3CCC4(CCCN(c5ncc(C(=O)N[C@H]6C(C)(C)[C@H](Oc7ccc(C#N)c(Cl)c7)C6(C)C)cn5)C4)C3)cc1)=N[C@@H](Cc1ncco1)c1nnc(C)n1-2 (some centres unmarked) [Compound I-163] | < 500 nM | > 3000 nM | > 3000 nM | 1500 to 3000 nM |  |  |  | 
23 | Cc1sc2c(c1C)C(c1ccc(C[C@H]3C[C@]4(CCCN(c5ncc(C(=O)N[C@H]6C(C)(C)[C@H](Oc7ccc(C#N)c(Cl)c7)C6(C)C)cn5)C4)C3)cc1)=N[C@@H](C)c1nnc(C)n1-2 [Compound I-394] | < 500 nM | > 3000 nM | < 500 nM | < 500 nM |  |  |  | 
24 | CNc1ccc2c(n1)C(c1ccc(OC3CC4(CCN(c5ncc(C(=O)N[C@H]6C(C)(C)[C@H](Oc7ccc(C#N)c(Cl)c7)C6(C)C)cn5)CC4)C3)cc1)=NCc1onc(C)c1-2 [Compound I-232] | < 500 nM | > 3000 nM | < 500 nM | < 500 nM |  |  |  | 
25 | Cc1sc2c(c1C)C(c1ccc([C@@H]3CCN(C(=O)[C@@H]4CCCN(c5ncc(C(=O)N[C@H]6C(C)(C)[C@H](Oc7ccc(C#N)c(Cl)c7)C6(C)C)cn5)C4)C3)cc1)=N[C@@H](Cc1ncco1)c1nnc(C)n1-2 [Compound I-383] | > 3000 nM | > 3000 nM | > 3000 nM | > 3000 nM |  |  |  | 
26 | Cc1sc2c(c1C)C(c1ccc(C3CC3C3CC4(CCN(c5ncc(C(=O)N[C@H]6C(C)(C)[C@H](Oc7ccc(C#N)c(Cl)c7)C6(C)C)cn5)CC4)C3)cc1)=N[C@H](Cc1ncco1)c1nnc(C)n1-2 (some centres unmarked) [Compound I-150] | < 500 nM | > 3000 nM | < 500 nM | > 3000 nM |  |  |  | 
